Measurements reported in patent US12508300B2, “Acylated GLP-1 derivative” (Sciwind Biosciences Co., Ltd., priority 2019, dated 2025).

Target: T1, trypsin (Bos taurus, UniProt P00760)
T1 construct: purchased Sigma T8003
T1 sequence (P00760 24-246): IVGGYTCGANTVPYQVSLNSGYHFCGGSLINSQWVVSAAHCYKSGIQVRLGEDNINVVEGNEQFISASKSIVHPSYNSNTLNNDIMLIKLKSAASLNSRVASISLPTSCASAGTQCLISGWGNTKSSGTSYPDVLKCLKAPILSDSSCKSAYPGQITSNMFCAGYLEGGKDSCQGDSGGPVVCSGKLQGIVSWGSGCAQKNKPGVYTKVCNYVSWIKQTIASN
Assay: Trypsin degradation experiments
Assay type: in vitro ADME
Method: Pepsin (3200-4500 U/mg protein, from Sigma, catalog number: P6887), trypsin (approximately […] protein, from Sigma, catalog number: T8003).
B: Reaction buffer of trypsin: three 20 mM citric acid-phosphate buffers with different pH (4.0, 6.8, and 8.0) are prepared, then adding 0.005% Tween 20 and 0.001% BSA to prepare a reaction buffer of trypsin.
D: Simulated intestinal fluid containing trypsin (SIF): obtained by taking 0.0684 g of potassium dihydrogen phosphate, adding 2.5 ml of water to dissolve it, adding 0.77 ml of 0.2M sodium hydroxide solution and 5 ml of water, and then adding and dissolving 0.1001 g of trypsin; the pH is measured as 6.82, then diluting by adding water to 10 ml.
An appropriate amount of the stock solution of the test sample is taken respectively, then diluting it to 0.06 mg/ml with reaction buffers of trypsin with different pH; each group of reaction solution is divided into 1 ml/tube, a total of 7 tubes, then mixing well and incubating in a 37° C. water bath for 30 min. […]
HPLC assay is performed with samples from the enzyme degradation experiment. The peak area of the main peak of the sample without enzyme reaction at 0 point (recorded as −5 min) is used as the basal peak area, and the remaining percentage of the peak area of the main peak at different time points after enzyme addition is calculated.

`CC[C@H](C)[C@H](NC(=O)[C@H](Cc1ccccc1)NC(=O)[C@H](CCC(=O)O)NC(=O)[C@H](CCCCNC(=O)COCCOCCNC(=O)COCCOCCNC(=O)CC[C@H](NC(=O)CCCCCCCCCCCCCCCCC(=O)O)C(=O)O)NC(=O)[C@H](C)NC(=O)[C@H](C)NC(=O)[C@H](CCC(N)=O)NC(=O)CNC(=O)[C@H](CCC(=O)O)NC(=O)[C@H](CC(C)C)NC(=O)[C@H](Cc1ccc(O)cc1)NC(=O)[C@H](CO)NC(=O)[C@H](CO)NC(=O)[C@@H](NC(=O)[C@H](CC(=O)O)NC(=O)[C@H](CO)NC(=O)[C@@H](NC(=O)[C@H](Cc1ccccc1)NC(=O)[C@@H](NC(=O)CNC(=O)[C@H](CCC(=O)O)NC(=O)C(C)(C)NC(=O)[C@@H](N)Cc1cnc[nH]1)[C@@H](C)O)[C@@H](C)O)C(C)C)C(=O)N[C@@H](C)C(=O)N[C@@H](Cc1c[nH]c2ccccc12)C(=O)N[C@@H](CC(C)C)C(=O)N[C@H](C(=O)N[C@@H](CCCNC(=N)N)C(=O)NCC(=O)N[C@@H](CCCNC(=N)N)C(=O)NCC(=O)O)C(C)C` [Semaglutide, N-ε^26-[2-(2-[2-(2-[2-(2[4-(17-carboxyheptadecanoylamino)-4(s)-carboxybutyrylamino]ethoxy)ethoxy]acetylamino)ethoxy]ethoxy)acetyl][Aib^8, Arg^34]GLP-1-(7-37) peptide] was tested, and the “ability against trypsin degradation (in words)” value (pH4.0) was “show the ability against trypsin degradation” and the “degradation rate by trypsin (in words)” value (pH6.8 and 8.0, n=4, FIG. 6) was “basically the same”.
